Test results: US20060122276A1, “Agent for inhibiting membrane virus reproduction, method for the production thereof, pharmaceutical composition and method for inhibiting viral infections” (priority 2003, published 2006)
Entries after “also recorded” stand apart in the source; their conditions may differ. Like-named read-outs stand apart in the source and are kept apart here.

Key:
[1] = test system: herpes simplex virus (HSV-1); assay: Antiviral activity with respect to HSV-1 in VERO cells; type: cell-based, type 1, strain L2; settings: 100 TCD50, 48 hours after the infection
Description: Herpes simplex virus, type 1, strain L2, replicated in VERO cells was used in the investigation.
[…] acyclovir was used as positive control

[2] = test system: African green monkey kidney cells (VERO); assay: Cytotoxic action on non-infected VERO cells; type: cell-based; settings: 500 and 1000 μg/ml; 3-days follow-up
[3] = test system: HIV-1; settings: for Optical density: 6th day, values >0.086 are positive for HIV
[4] = test system: hepatitis C virus; assay: Viability of hepatitis C virus-infected SPEV cell cultures; type: cell-based, hepatitis C virus genotype 1b; settings: 7th day after infecting (control 0)
Method: (§1) In our work we used cytopathogenic strain of hepatitis C virus belonging to geno-type 1b. The strain was isolated from the blood serum of a patient suffering from chronic viral hepatitis C, identified as hepatic C virus. Infective doses of HSV equal to 10 TCD of 50/20 μl were used in the investigation.
Cultures of reinoculated porcine embryo kidney cells (SPEV), highly sensitive to the pathogenic action of HSV, obtained from “Narva” Company (Russia) were employed. These cultures were used in the form of a one day monolayer of cells, grown in 24-cell plastic plates.
(§2) For studying the antiviral activity of the preparation, the preparation was introduced in various concentrations into the SPEV cell cultures at the moment of infection and in 24 hours after the infection with hepatitis C virus on the cell in 24-cell plastic culture plates.
The viability of the SPEV cell cultures infected and non-infected with HSV was studied on the 7th day after the infection.

[5] = test system: porcine embryo kidney cells (SPEV); assay: Cytotoxic properties on SPEV cell culture; type: cell-based; settings: for Percentage of died cells on exposure with different concentrations of the preparation during 48 hours: SPEV
Method: Cultures of reinoculated porcine embryo kidney cells (SPEV), highly sensitive to the pathogenic action of HSV, obtained from “Narva” Company (Russia) were employed. These cultures were used in the form of a one day monolayer of cells, grown in 24-cell plastic plates. The cultures of SPEV cells were grown on medium 199 with 10% of fetal calf serum with addition of glutamine and antibiotics (100 U/ml).
as §2

[6] = test system: Hep 2 cells; assay: Proliferation of human epithelial carcinoma Hep 2 cells; type: cell-based
Method: In our experiments we used a 1 day culture of passage 14 Hep 2 cells—reinoculated cells of human epithelial carcinoma.
The growth medium contained DMEM+glutamine+antibiotics+5% FBS (fetal bovine serum). The supporting medium was DMEM/needle with a double kit of amino acids and vitamins+glutamine+antibiotics+10% of cattle serum.
The effect of such influence was most pronounced on the seventh day at the concentration of 100 μg/ml: there appeared discontinuities in the monolayer and there were many cell conglomerates in the culture medium.
The monolayer was removed from the glass plate in the 500 μl volume of the medium. The cells were precipitated from 200 μl, resuspended in a lysing buffer; electrophoresis of proteins was carried out in 12.5% PAAG with Kumashi staining.
A reduction in the intensity of protein profiles was observed on the second day and most dramatically on the seventh day at the studied concentrations of the preparation as compared with control. This can be indicative of a reduction in the number of cells because of inhibition of the mitotic activity of cells in the presence of the preparation. On the 7th day of the action of the preparation a reduction in the number of DNA compared with control was observed. Checking for the presence of DNA fragmentation has shown its absence, i.e., apoptosis manifestations were not detected.

[7] = test system: HIV-1; assay: Treatment of HIV-1-infected patients, blood sample analyses
Method: The treatment was carried out in accordance with the following schedule: 20 mg rectal suppositories every three days, one suppository a day during 3 months.

[8] = test system: hepatitis C virus; assay: Residual infectious activity (titers) of hepatitis C virus in SPEV culture medium; type: cell-based, hepatitis C virus genotype 1b; settings: for Lowering of virus titers in SPEV cell cultures: administered simultaneously with the virus
Method: as §1
For titrating the residual infectiousness of the virus, the same line of porcine embryo kidney cells (SPEV) was used.
as §2
For determining the residual infectious activity of HSV, samples of the culture fluid were taken from the plate cells three days after the treatment of the infected cells with the preparation and titrated on the SPEV cell cultures. The infectious activity of HSV was taken into account from the results of titration on the 6-7th day after the infection, when maximum cytopathogenic action of the virus developed, applying the Rid and Mench formula for calculating the titer of the Hepatitis C virus.

[9] = test system: human embryo fibroblasts (M-21); assay: Cytotoxic action on non-infected M-21 cells; type: cell-based; settings: 500 and 1000 μg/ml; 3-days follow-up

## sodium salt of fullerene-polyamino-caproic acid
[1]; 10 μg/ml
  Protection of VERO cells against the cytodestructive action of HSV-1: full protection
[1]; 1.0, 10 and 50 μg/ml, introduced 30 and 60 minutes after the infection
  Protection of VERO cells from the cytodestructive action of HSV-1: full protection
[2]
  Cytodestructive action on non-infected VERO cells: has not revealed cytodestructive action
[3]; 0.5 μg/ml
  Optical density: 2.147
[3]; 1.0 μg/ml
  Optical density: 0.165
[3]; 10 μg/ml
  Optical density: 0.074
[3]; 10 μg/ml, HIV-1
  Virus in the culture medium: not detected
[4]; 6.25 μg/ml, introduced 24 hours after infecting
  Percentage of survived SPEV cells: 0%
[4]; 6.25 μg/ml, introduced at the moment of infecting
  Percentage of survived SPEV cells: 0%
[4]; 12.5 μg/ml, introduced 24 hours after infecting
  Percentage of survived SPEV cells: 0%
[4]; 12.5 μg/ml, introduced at the moment of infecting
  Percentage of survived SPEV cells: 0%
[4]; 25 μg/ml, introduced 24 hours after infecting
  Percentage of survived SPEV cells: 0%
[4]; 25 μg/ml, introduced at the moment of infecting
  Percentage of survived SPEV cells: 0%
[4]; 50 μg/ml, introduced 24 hours after infecting
  Percentage of survived SPEV cells: 50%
[4]; 50 μg/ml, introduced at the moment of infecting
  Percentage of survived SPEV cells: 75%
[4]; 100 μg/ml, introduced 24 hours after infecting
  Percentage of survived SPEV cells: 100%
[4]; 100 μg/ml, introduced at the moment of infecting
  Percentage of survived SPEV cells: 100%
[5]; 6.25 (in μg)
  Percentage of died cells on exposure with different concentrations of the preparation during 48 hours: 0%
[5]; 12.5 (in μg)
  Percentage of died cells on exposure with different concentrations of the preparation during 48 hours: 0%
[5]; 25 (in μg)
  Percentage of died cells on exposure with different concentrations of the preparation during 48 hours: 0%
[5]; 50 (in μg)
  Percentage of died cells on exposure with different concentrations of the preparation during 48 hours: 0%
[5]; 100 (in μg)
  Percentage of died cells on exposure with different concentrations of the preparation during 48 hours: 0%
[5]; concentration of up to 100 μg/ml
  Cytotoxic properties for SPEV cell cultures: does not have cytotoxic properties
[6]; 7th day
  Number of DNA compared with control: reduction
[6]; 10, 50 and 100 μg/ml, most pronounced at 100 μg/ml
  Proliferation of Hep 2 cells (monolayer formation): pronounced inhibition; also recorded: inhibits the formation of a monolayer
[6]; second day and most dramatically seventh day, 10, 50 and 100 μg/ml
  Intensity of protein profiles compared with control: reduction
[7]; HIV-1-infected patients, 20 mg rectal suppositories, 3 months
  Condition of the patients: improvement
[7]; Patient A, after 1 month, 20 mg rectal suppository every day, before treatment 8
  Virus titer (value reciprocal to the dilution of sample that gives 50% CPE or syncytia): 2
[7]; Patient A, after 1 month, 20 mg rectal suppository every day, before treatment 59
  T4-lymphocytes, mm^3: 355 mm^3
[7]; Patient A, after 1 month, 20 mg rectal suppository every day, before treatment 63
  T8-lymphocytes, mm^3: 455 mm^3
[7]; Patient A, after 1 month, 20 mg rectal suppository every day, before treatment 1,200,000
  PCR, RNA, copies/ml: 72,000 copies/ml
[7]; Patient A, after 2 months, 20 mg rectal suppository every day, before treatment 8
  Virus titer (value reciprocal to the dilution of sample that gives 50% CPE or syncytia): 2
[7]; Patient A, after 2 months, 20 mg rectal suppository every day, before treatment 59
  T4-lymphocytes, mm^3: 234 mm^3
[7]; Patient A, after 2 months, 20 mg rectal suppository every day, before treatment 63
  T8-lymphocytes, mm^3: 219 mm^3
[7]; Patient A, after 2 months, 20 mg rectal suppository every day, before treatment 1,200,000
  PCR, RNA, copies/ml: 43,000 copies/ml
[7]; Patient A, after 3 months, 20 mg rectal suppository every day, before treatment 8
  Virus titer (value reciprocal to the dilution of sample that gives 50% CPE or syncytia): 0
[7]; Patient A, after 3 months, 20 mg rectal suppository every day, before treatment 59
  T4-lymphocytes, mm^3: 381 mm^3
[7]; Patient A, after 3 months, 20 mg rectal suppository every day, before treatment 63
  T8-lymphocytes, mm^3: 409 mm^3
[7]; Patient A, after 3 months, 20 mg rectal suppository every day, before treatment 1,200,000
  PCR, RNA, copies/ml: 44,000 copies/ml
[7]; Patient B, after 1 month, 20 mg rectal suppositories every three days, before treatment 4
  Virus titer (value reciprocal to the dilution of sample that gives 50% CPE or syncytia): 128
[7]; Patient B, after 1 month, 20 mg rectal suppositories every three days, before treatment 163
  T4-lymphocytes, mm^3: 581 mm^3
[7]; Patient B, after 1 month, 20 mg rectal suppositories every three days, before treatment 257
  T8-lymphocytes, mm^3: 464 mm^3
[7]; Patient B, after 1 month, 20 mg rectal suppositories every three days, before treatment 140,000
  PCR, RNA, copies/ml: 180,000 copies/ml
[7]; Patient B, after 2 months, 20 mg rectal suppositories every three days, before treatment 4
  Virus titer (value reciprocal to the dilution of sample that gives 50% CPE or syncytia): 2
[7]; Patient B, after 2 months, 20 mg rectal suppositories every three days, before treatment 163
  T4-lymphocytes, mm^3: 329 mm^3
[7]; Patient B, after 2 months, 20 mg rectal suppositories every three days, before treatment 257
  T8-lymphocytes, mm^3: 329 mm^3
[7]; Patient B, after 2 months, 20 mg rectal suppositories every three days, before treatment 140,000
  PCR, RNA, copies/ml: 3,500 copies/ml
[7]; Patient B, after 3 months, 20 mg rectal suppositories every three days, before treatment 4
  Virus titer (value reciprocal to the dilution of sample that gives 50% CPE or syncytia): 1
[7]; Patient B, after 3 months, 20 mg rectal suppositories every three days, before treatment 163
  T4-lymphocytes, mm^3: 325 mm^3
[7]; Patient B, after 3 months, 20 mg rectal suppositories every three days, before treatment 257
  T8-lymphocytes, mm^3: 401 mm^3
[7]; Patient B, after 3 months, 20 mg rectal suppositories every three days, before treatment 140,000
  PCR, RNA, copies/ml: 2,000 copies/ml
[8]; 6.25 μg/ml, introduced 24 hours after infecting (control 9.1)
  Titers of hepatitis C virus in medium samples taken on the 3rd day after infecting: 9.0 1 g TCD 50/20 μl
[8]; 6.25 μg/ml, introduced at the moment of infecting (control 9.5)
  Titers of hepatitis C virus in medium samples taken on the 3rd day after infecting: 9.7 1 g TCD 50/20 μl
[8]; 12.5 μg/ml, introduced 24 hours after infecting (control 9.1)
  Titers of hepatitis C virus in medium samples taken on the 3rd day after infecting: 9.9 1 g TCD 50/20 μl
[8]; 12.5 μg/ml, introduced at the moment of infecting (control 9.5)
  Titers of hepatitis C virus in medium samples taken on the 3rd day after infecting: 9.5 1 g TCD 50/20 μl
[8]; 25 μg/ml, introduced 24 hours after infecting (control 9.1)
  Titers of hepatitis C virus in medium samples taken on the 3rd day after infecting: 9.5 1 g TCD 50/20 μl
[8]; 25 μg/ml, introduced at the moment of infecting (control 9.5)
  Titers of hepatitis C virus in medium samples taken on the 3rd day after infecting: 9.3 1 g TCD 50/20 μl
[8]; 50 μg/ml, listed as preparation
  Lowering of virus titers in SPEV cell cultures: 3.0 lg
[8]; 50 μg/ml, introduced 24 hours after infecting (control 9.1)
  Titers of hepatitis C virus in medium samples taken on the 3rd day after infecting: 8.5 1 g TCD 50/20 μl
[8]; 50 μg/ml, introduced at the moment of infecting (control 9.5)
  Titers of hepatitis C virus in medium samples taken on the 3rd day after infecting: 6.2 1 g TCD 50/20 μl
[8]; 100 μg/ml
  Lowering of virus titers in SPEV cell cultures: 7.4 lg
[8]; 100 μg/ml, introduced 24 hours after infecting (control 9.1)
  Titers of hepatitis C virus in medium samples taken on the 3rd day after infecting: 3.0 1 g TCD 50/20 μl
[8]; 100 μg/ml, introduced at the moment of infecting (control 9.5)
  Titers of hepatitis C virus in medium samples taken on the 3rd day after infecting: 2.1 1 g TCD 50/20 μl
[9]
  Cytodestructive action on non-infected M-21 cells: has not revealed cytodestructive action
